Data as given in PubChem BioAssay (NCI).
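Dose response: 5 concentrations. Exposure: 48 h. Format: 96-well plates. Endpoint: linear interpolation; highest concentration if not reached. TGI is the concentration that stops growth completely.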

Tested on: SF-268 CNS
Assay: growth of human tumour cells (NCI), 48 h

`CC(C)OC(=O)c1ccc(NCC2=CC(=O)C=CC2=O)cc1` and `O=c1[nH]c2cccc([N+](=O)[O-])c2c(=O)n1-c1ccc(Cl)cc1` are within 1.5-fold of each other in TGI: 26.1 µM for the first, 30.4 µM for the second.

`CC(C)C[C@H]1[C@@H](OCc2ccccc2)COS(=O)(=O)N1[C@H](C)c1ccccc1` and `CCSc1nnc(Sc2c3ccccc3nc3ccccc23)s1` cannot be ordered by TGI: greater than 100 µM for the first, greater than 56.4 µM for the second.

`O=C1c2ccccc2-c2nnc(-c3ccc([N+](=O)[O-])cc3)cc21` and `N=c1c2ccccc2nc2oc3cc([N+](=O)[O-])ccc3n12` cannot be ordered by TGI: greater than 10 µM for the first, 85.2 µM for the second.

`C1C2CC3CC1CC(c1nn4c(C56CC7CC(CC(C7)C5)C6)nnc4s1)(C2)C3` and `Cn1c(-c2cccs2)cc(-c2cccs2)c1-c1cccs1` cannot be ordered by TGI: greater than 100 µM for the first, greater than 100 µM for the second.

`CCOC(=O)CC[C@H](N)C(=O)N[C@@H](Cc1ccc(N(CCCl)CCCl)cc1)C(=O)OCC` gave a TGI of 7.07 µM.

Tested on: MALME-3M melanoma
Assay: growth of human tumour cells (NCI), 48 h

`CCN(CCCl)c1cc(CN(C)C)cc(NC(=O)c2ccc(C(=O)Nc3cc(CN(C)C)cc(N(CC)CCCl)c3)cc2)c1` and `CCOC(=O)CC[C@H](N)C(=O)N[C@@H](Cc1ccc(N(CCCl)CCCl)cc1)C(=O)OCC` are within 1.5-fold of each other in TGI: 0.88 µM for the first, 0.823 µM for the second.

Compared with `C=CCN1C(=O)/C(=C/c2ccc(Cl)cc2)N=C1SC/C=C/C`, `O=c1[nH]c2cccc([N+](=O)[O-])c2c(=O)n1-c1ccc(Cl)cc1` is lower in TGI: greater than 100 µM for the first, 27.6 µM for the second.

`CC12Nc3c(Cl)cc(Cl)cc3N1C(=O)c1ccccc12` (configuration not stated) and `O=C1C2=Cc3ccccc3CCN2c2ccccc21` cannot be ordered by TGI: greater than 100 µM for the first, greater than 76.7 µM for the second.

`CC(=O)OCC1OC(NC(=S)Nn2c(=O)[nH]c3ccccc3c2=O)C(OC(C)=O)C(OC(C)=O)C1OC(C)=O` (configuration not stated) and `CC[C@]12C=CCN3CC[C@@]4(c5cc(Br)c(OC)c([N+](=O)[O-])c5N(C)[C@H]4[C@@](O)(C(=O)OC)[C@@H]1OC(C)=O)[C@@H]32` cannot be ordered by TGI: greater than 100 µM for the first, greater than 100 µM for the second.

Going from `CN(CCC(=O)N1CC(CCl)c2ccc([N+](=O)[O-])cc21)CCC(=O)N1CC(CCl)c2ccc([N+](=O)[O-])cc21` (configuration not stated) to `N=c1c2ccccc2nc2oc3cc([N+](=O)[O-])ccc3n12`, the TGI rises from 23.7 µM to greater than 100 µM.

`C[C@]12CC[C@H]3[C@@H](CCC4=CC(=O)CC[C@@H]43)[C@@H]1CC[C@]2(O)C(N)=O` and `C1C2CC3CC1CC(c1nn4c(C56CC7CC(CC(C7)C5)C6)nnc4s1)(C2)C3` cannot be ordered by TGI: greater than 100 µM for the first, greater than 100 µM for the second.

First: C/C(Cl)=N/OC(=O)Nc1ccc(F)c([N+](=O)[O-])c1
Second: CC(C)OC(=O)c1ccc(NCC2=CC(=O)C=CC2=O)cc1
The TGI of the first is 2.6-fold lower: 8.88 µM for the first, 22.7 µM for the second.

`O=c1[nH]c(=O)n(C/C=C/CO)nc1Br` and `Cc1nc(N)c(N2CCN(S(N)(=O)=O)CC2)c(=O)[nH]1` cannot be ordered by TGI: greater than 100 µM for the first, greater than 100 µM for the second.

Compared with `O=C1CC(Br)c2c(Br)sc(Br)c21` (configuration not stated), `O=C1CSC(c2ccccc2)N1c1nc2cc3sc(N4C(=O)CSC4c4ccccc4)nc3cc2s1` (configuration not stated) is higher in TGI: 38.3 µM for the first, greater than 100 µM for the second.

`COC(=O)C1C2OC(C)(C)OC2CN1S(=O)(=O)c1ccc(C)cc1` (configuration not stated) and `CC(C)C[C@H]1[C@@H](OCc2ccccc2)COS(=O)(=O)N1[C@H](C)c1ccccc1` cannot be ordered by TGI: greater than 100 µM for the first, greater than 100 µM for the second.

`COc1ccc(CNc2ccn(C3OC(CO)C(O)C3O)c(=O)n2)cc1` (configuration not stated) and `O=C1c2ccccc2-c2nnc(-c3ccc([N+](=O)[O-])cc3)cc21` cannot be ordered by TGI: greater than 100 µM for the first, greater than 10 µM for the second.

`Cn1c(-c2cccs2)cc(-c2cccs2)c1-c1cccs1` and `CCSc1nnc(Sc2c3ccccc3nc3ccccc23)s1` cannot be ordered by TGI: greater than 100 µM for the first, greater than 100 µM for the second.

Tested on: SF-539 CNS
Assay: growth of human tumour cells (NCI), 48 h

First: CCN(CCCl)c1cc(CN(C)C)cc(NC(=O)c2ccc(C(=O)Nc3cc(CN(C)C)cc(N(CC)CCCl)c3)cc2)c1
Second: CCOC(=O)CC[C@H](N)C(=O)N[C@@H](Cc1ccc(N(CCCl)CCCl)cc1)C(=O)OCC
The TGI of the first is 3.4-fold lower: 0.815 µM for the first, 2.8 µM for the second.

First: C=CCN1C(=O)/C(=C/c2ccc(Cl)cc2)N=C1SC/C=C/C
Second: O=c1[nH]c2cccc([N+](=O)[O-])c2c(=O)n1-c1ccc(Cl)cc1
The TGI of the first is higher: greater than 100 µM for the first, 26.2 µM for the second.

Going from `CC12Nc3c(Cl)cc(Cl)cc3N1C(=O)c1ccccc12` (configuration not stated) to `O=C1C2=Cc3ccccc3CCN2c2ccccc21`, the TGI falls from greater than 100 µM to 27.2 µM.

`CC(=O)OCC1OC(NC(=S)Nn2c(=O)[nH]c3ccccc3c2=O)C(OC(C)=O)C(OC(C)=O)C1OC(C)=O` (configuration not stated) and `CC[C@]12C=CCN3CC[C@@]4(c5cc(Br)c(OC)c([N+](=O)[O-])c5N(C)[C@H]4[C@@](O)(C(=O)OC)[C@@H]1OC(C)=O)[C@@H]32` cannot be ordered by TGI: greater than 100 µM for the first, greater than 100 µM for the second.

First: CN(CCC(=O)N1CC(CCl)c2ccc([N+](=O)[O-])cc21)CCC(=O)N1CC(CCl)c2ccc([N+](=O)[O-])cc21 (configuration not stated)
Second: N=c1c2ccccc2nc2oc3cc([N+](=O)[O-])ccc3n12
The TGI of the first is 2.4-fold lower: 27.7 µM for the first, 65.4 µM for the second.

`C[C@]12CC[C@H]3[C@@H](CCC4=CC(=O)CC[C@@H]43)[C@@H]1CC[C@]2(O)C(N)=O` and `C1C2CC3CC1CC(c1nn4c(C56CC7CC(CC(C7)C5)C6)nnc4s1)(C2)C3` cannot be ordered by TGI: greater than 100 µM for the first, greater than 100 µM for the second.

Compared with `C/C(Cl)=N/OC(=O)Nc1ccc(F)c([N+](=O)[O-])c1`, `CC(C)OC(=O)c1ccc(NCC2=CC(=O)C=CC2=O)cc1` is lower in TGI: greater than 100 µM for the first, 22.4 µM for the second.

`O=c1[nH]c(=O)n(C/C=C/CO)nc1Br` and `Cc1nc(N)c(N2CCN(S(N)(=O)=O)CC2)c(=O)[nH]1` cannot be ordered by TGI: greater than 100 µM for the first, greater than 100 µM for the second.

First: O=C1CC(Br)c2c(Br)sc(Br)c21 (configuration not stated)
Second: O=C1CSC(c2ccccc2)N1c1nc2cc3sc(N4C(=O)CSC4c4ccccc4)nc3cc2s1 (configuration not stated)
The TGI of the first is 2.8-fold higher: 43.7 µM for the first, 15.6 µM for the second.

`COC(=O)C1C2OC(C)(C)OC2CN1S(=O)(=O)c1ccc(C)cc1` (configuration not stated) and `CC(C)C[C@H]1[C@@H](OCc2ccccc2)COS(=O)(=O)N1[C@H](C)c1ccccc1` cannot be ordered by TGI: greater than 100 µM for the first, greater than 100 µM for the second.

`COc1ccc(CNc2ccn(C3OC(CO)C(O)C3O)c(=O)n2)cc1` (configuration not stated) and `O=C1c2ccccc2-c2nnc(-c3ccc([N+](=O)[O-])cc3)cc21` cannot be ordered by TGI: greater than 100 µM for the first, greater than 10 µM for the second.

Going from `Cn1c(-c2cccs2)cc(-c2cccs2)c1-c1cccs1` to `CCSc1nnc(Sc2c3ccccc3nc3ccccc23)s1`, the TGI falls from greater than 100 µM to 21.9 µM.
